Earlier results, collected in patent publication US12357592B2, “Compositions and methods for monitoring the treatment of breast disorders” (priority 2018, dated 2025).

Test system: breast cancer
Settings: tamoxifen as prevention, given to healthy women; background statement

CC/C(=C(\c1ccccc1)c1ccc(OCCN(C)C)cc1)c1ccccc1 [Tamoxifen, (Z)-2-[4-(1,2-diphenyl-1-butenyl)phenoxy]-N,N-dimethylethanamine]
reduce the risk of breast cancer: ≤ 50%
